Source: ChEMBL document CHEMBL5325488, “Discovery of SMD-3040 as a Potent and Selective SMARCA2 PROTAC Degrader with Strong in vivo Antitumor Activity” (J Med Chem, 2023)

Columns and labels:
Type in all cases: cell-based
[1] = molecular target: T1, von Hippel-Lindau disease tumor suppressor/SWI/SNF-related matrix-associated actin-dependent regulator of chromatin subfamily A member 2 (Homo sapiens, UniProt P51531+P40337); test: PROTAC activity at VHL/C-terminal HiBiT fused SMARCA2 in human HeLa cells assessed as induction of SMARCA2 degradation incubated for 24 hrs by Nano-Glo HiBiT analysis
Target sequence in this assay (P51531 whole entry, the tested form may be a part): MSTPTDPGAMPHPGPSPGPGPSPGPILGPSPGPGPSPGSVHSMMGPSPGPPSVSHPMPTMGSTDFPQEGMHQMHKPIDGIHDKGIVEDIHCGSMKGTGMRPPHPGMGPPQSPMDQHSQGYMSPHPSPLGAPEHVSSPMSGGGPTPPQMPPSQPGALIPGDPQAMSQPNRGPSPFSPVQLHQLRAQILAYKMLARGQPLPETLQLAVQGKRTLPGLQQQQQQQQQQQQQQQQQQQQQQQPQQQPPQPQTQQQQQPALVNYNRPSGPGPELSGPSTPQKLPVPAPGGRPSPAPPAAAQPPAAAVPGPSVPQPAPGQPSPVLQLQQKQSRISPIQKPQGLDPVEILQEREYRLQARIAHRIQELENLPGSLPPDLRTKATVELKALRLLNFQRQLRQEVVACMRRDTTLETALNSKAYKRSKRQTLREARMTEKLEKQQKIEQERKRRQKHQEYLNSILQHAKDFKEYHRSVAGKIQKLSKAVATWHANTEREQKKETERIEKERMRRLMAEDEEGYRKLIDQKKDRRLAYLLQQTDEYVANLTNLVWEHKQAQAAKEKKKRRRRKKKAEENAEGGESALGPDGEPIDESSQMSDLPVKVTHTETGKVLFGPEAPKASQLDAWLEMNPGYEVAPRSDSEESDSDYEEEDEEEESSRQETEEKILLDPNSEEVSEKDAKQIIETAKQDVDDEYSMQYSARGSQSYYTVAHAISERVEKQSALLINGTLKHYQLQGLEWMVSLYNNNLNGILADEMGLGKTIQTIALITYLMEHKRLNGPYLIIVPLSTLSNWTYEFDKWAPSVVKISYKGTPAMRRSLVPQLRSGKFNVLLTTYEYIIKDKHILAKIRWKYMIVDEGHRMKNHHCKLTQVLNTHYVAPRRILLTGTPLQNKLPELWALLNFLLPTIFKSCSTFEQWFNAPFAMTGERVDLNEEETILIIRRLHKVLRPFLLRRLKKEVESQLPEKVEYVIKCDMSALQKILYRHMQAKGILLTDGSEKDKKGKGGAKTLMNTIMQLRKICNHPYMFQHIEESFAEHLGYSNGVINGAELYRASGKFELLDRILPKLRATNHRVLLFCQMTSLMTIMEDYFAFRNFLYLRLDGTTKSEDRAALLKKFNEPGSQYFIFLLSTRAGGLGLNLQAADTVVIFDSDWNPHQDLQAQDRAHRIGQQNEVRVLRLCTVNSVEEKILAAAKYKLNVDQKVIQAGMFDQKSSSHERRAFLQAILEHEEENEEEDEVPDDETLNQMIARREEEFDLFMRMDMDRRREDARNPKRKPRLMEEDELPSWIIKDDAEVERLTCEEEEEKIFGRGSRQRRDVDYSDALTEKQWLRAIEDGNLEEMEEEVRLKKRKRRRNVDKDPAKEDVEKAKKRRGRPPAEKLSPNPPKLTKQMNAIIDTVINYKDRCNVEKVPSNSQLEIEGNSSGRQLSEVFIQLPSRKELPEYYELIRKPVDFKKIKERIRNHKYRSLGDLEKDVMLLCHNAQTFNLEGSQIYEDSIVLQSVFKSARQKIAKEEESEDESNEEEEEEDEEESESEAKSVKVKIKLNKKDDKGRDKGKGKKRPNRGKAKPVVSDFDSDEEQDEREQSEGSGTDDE
Target sequence in this assay (P40337 whole entry, the tested form may be a part): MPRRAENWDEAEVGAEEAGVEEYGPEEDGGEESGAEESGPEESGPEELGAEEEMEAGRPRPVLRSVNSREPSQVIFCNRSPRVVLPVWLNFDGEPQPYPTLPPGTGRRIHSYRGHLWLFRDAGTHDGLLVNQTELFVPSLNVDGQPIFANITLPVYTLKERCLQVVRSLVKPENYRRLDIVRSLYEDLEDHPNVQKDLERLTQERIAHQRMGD

[2] = molecular target: T2, von Hippel-Lindau disease tumor suppressor/SWI/SNF-related matrix-associated actin-dependent regulator of chromatin subfamily A member 4 (Homo sapiens, UniProt P51532+P40337); test: PROTAC activity at VHL/C-terminal HiBiT fused SMARCA4 in human HeLa cells assessed as induction of SMARCA4 degradation by measuring maximal efficacy incubated for 24 hrs by Nano-Glo HiBiT analysis relative to control
Target sequence in this assay (P40337 whole entry, looked up, the tested form may be a part): as the sequence (P40337 whole entry, the tested form may be a part) above
Target sequence in this assay (P51532 whole entry, looked up, the tested form may be a part): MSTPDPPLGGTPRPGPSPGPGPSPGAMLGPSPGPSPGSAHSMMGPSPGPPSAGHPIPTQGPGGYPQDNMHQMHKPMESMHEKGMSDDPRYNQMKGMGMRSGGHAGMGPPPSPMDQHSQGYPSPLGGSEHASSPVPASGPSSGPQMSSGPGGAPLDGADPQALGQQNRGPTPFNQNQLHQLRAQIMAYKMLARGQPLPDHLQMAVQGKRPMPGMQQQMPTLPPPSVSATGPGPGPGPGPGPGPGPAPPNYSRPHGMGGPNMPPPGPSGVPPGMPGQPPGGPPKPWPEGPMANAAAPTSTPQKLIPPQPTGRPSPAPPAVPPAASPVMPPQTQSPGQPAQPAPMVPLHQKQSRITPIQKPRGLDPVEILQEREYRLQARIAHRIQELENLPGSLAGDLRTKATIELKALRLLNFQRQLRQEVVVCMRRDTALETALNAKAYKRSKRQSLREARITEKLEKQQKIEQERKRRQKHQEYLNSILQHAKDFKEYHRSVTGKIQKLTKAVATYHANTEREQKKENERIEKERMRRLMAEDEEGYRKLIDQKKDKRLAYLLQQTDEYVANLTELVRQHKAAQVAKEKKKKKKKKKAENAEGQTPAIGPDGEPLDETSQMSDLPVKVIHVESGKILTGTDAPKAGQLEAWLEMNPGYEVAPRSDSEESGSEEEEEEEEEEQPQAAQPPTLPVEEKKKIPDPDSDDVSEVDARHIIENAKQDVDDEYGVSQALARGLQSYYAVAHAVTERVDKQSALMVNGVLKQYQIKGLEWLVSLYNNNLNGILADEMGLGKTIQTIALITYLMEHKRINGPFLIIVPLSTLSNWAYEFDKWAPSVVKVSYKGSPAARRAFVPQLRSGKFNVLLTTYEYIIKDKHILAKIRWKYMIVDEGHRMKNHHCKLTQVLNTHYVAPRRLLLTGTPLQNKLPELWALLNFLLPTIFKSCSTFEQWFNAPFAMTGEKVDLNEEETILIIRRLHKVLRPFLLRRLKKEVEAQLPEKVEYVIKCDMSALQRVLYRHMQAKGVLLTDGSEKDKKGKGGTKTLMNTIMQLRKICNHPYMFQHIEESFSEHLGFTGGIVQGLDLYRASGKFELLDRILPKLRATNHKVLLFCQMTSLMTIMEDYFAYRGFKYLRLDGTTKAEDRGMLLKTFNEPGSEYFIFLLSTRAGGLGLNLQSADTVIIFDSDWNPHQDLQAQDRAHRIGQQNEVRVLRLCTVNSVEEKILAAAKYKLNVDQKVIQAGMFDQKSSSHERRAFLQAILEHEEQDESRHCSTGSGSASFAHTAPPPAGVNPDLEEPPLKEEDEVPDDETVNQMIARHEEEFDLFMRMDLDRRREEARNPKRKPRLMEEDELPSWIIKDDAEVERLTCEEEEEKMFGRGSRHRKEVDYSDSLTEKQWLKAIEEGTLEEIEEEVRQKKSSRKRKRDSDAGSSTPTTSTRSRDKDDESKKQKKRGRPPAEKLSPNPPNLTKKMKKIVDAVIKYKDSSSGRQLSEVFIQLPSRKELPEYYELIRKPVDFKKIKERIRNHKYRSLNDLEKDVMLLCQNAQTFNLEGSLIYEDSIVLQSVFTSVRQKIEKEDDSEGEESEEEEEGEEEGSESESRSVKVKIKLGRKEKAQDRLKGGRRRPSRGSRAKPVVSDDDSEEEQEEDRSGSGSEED

[3] = molecular target: T1, von Hippel-Lindau disease tumor suppressor/SWI/SNF-related matrix-associated actin-dependent regulator of chromatin subfamily A member 2; test: PROTAC activity at VHL/C-terminal HiBiT fused SMARCA2 in human HeLa cells assessed as induction of SMARCA2 degradation by measuring maximal efficacy incubated for 24 hrs by Nano-Glo HiBiT analysis relative to control
Target sequence in this assay (P40337 whole entry, looked up, the tested form may be a part): as the sequence (P40337 whole entry, the tested form may be a part) above
Target sequence in this assay (P51531 whole entry, looked up, the tested form may be a part): as the sequence (P51531 whole entry, the tested form may be a part) above

[4] = molecular target: T2, von Hippel-Lindau disease tumor suppressor/SWI/SNF-related matrix-associated actin-dependent regulator of chromatin subfamily A member 4; test: PROTAC activity at VHL/C-terminal HiBiT fused SMARCA4 in human HeLa cells assessed as induction of SMARCA4 degradation incubated for 24 hrs by Nano-Glo HiBiT analysis
Target sequence in this assay (P51532 whole entry, the tested form may be a part): as the sequence (P51532 whole entry, looked up, the tested form may be a part) above
Target sequence in this assay (P40337 whole entry, the tested form may be a part): as the sequence (P40337 whole entry, the tested form may be a part) above

Row | Structure (SMILES) | DC50 [1] [nM] | Emax [2] [%] | Emax [3] [%] | DC50 [4] [nM]
1 | Cc1ncsc1-c1ccc([C@H](C)NC(=O)[C@@H]2C[C@@H](O)CN2C(=O)[C@@H](NC(=O)CCCCCCCn2cc(-c3cc(-c4ccccc4O)nnc3N)cn2)C(C)(C)C)cc1 | 3 | 90 | 95 | 23
2 | Cc1cc([C@H](C(=O)N2C[C@H](O)C[C@H]2C(=O)N[C@@H](CC(=O)NCCCCCCCCCCn2cc(-c3cc(-c4ccccc4O)nnc3N)cn2)c2ccc(-c3scnc3C)cc2)C(C)C)on1 | 37 | 93 | 95 | 53
3 | Cc1ncsc1-c1ccc([C@H](C)NC(=O)[C@@H]2C[C@@H](O)CN2C(=O)[C@@H](NC(=O)CCCCCCCCn2cc(-c3cc(-c4ccccc4O)nnc3N)cn2)C(C)(C)C)cc1 | 3 | 93 | 95 | 31
4 | Cc1ncsc1-c1ccc([C@H](C)NC(=O)[C@@H]2C[C@@H](O)CN2C(=O)[C@@H](NC(=O)CCCn2cc(-c3cc(-c4ccccc4O)nnc3N)cn2)C(C)(C)C)cc1 | 132 | 84 | 88 | 463
5 | Cc1ncsc1-c1ccc([C@H](C)NC(=O)[C@@H]2C[C@@H](O)CN2C(=O)[C@@H](NC(=O)C2CCC(N3CC4(CCC(n5cc(-c6cc(-c7ccccc7O)nnc6N)cn5)CC4)C3)CC2)C(C)(C)C)cc1 (some centres not stated) | 25 | 55 | 85 | > 1000
6 | Cc1ncsc1-c1ccc([C@H](C)NC(=O)[C@@H]2C[C@@H](O)CN2C(=O)[C@@H](NC(=O)CCCCCCCCCCCn2cc(-c3cc(-c4ccccc4O)nnc3N)cn2)C(C)(C)C)cc1 | 3 | 96 | 95 | 13
7 | Cc1ncsc1-c1ccc([C@H](C)NC(=O)[C@@H]2C[C@@H](O)CN2C(=O)[C@@H](NC(=O)CCCCCCn2cc(-c3cc(-c4ccccc4O)nnc3N)cn2)C(C)(C)C)cc1 | 16 | 81 | 89 | 212
8 | Cc1ncsc1-c1ccc([C@H](C)NC(=O)[C@@H]2C[C@@H](O)CN2C(=O)[C@@H](NC(=O)CCOCCOCCn2cc(-c3cc(-c4ccccc4O)nnc3N)cn2)C(C)C)cc1 | 313 | 59 | 77 | > 1000
9 | Cc1ncsc1-c1ccc([C@H](C)NC(=O)[C@@H]2C[C@@H](O)CN2C(=O)[C@@H](NC(=O)CCCCCCCCCCn2cc(-c3cc(-c4ccccc4O)nnc3N)cn2)C(C)(C)C)cc1 | 6 | 87 | 93 | 47

Other lines, results leading:

Row | DC50 [1] [nM] | Emax [2] [%] | Emax [3] [%] | DC50 [4] [nM] | Structure (SMILES)
10 | 71 | 94 | 94 | 75 | Cc1cc([C@H](C(=O)N2C[C@H](O)C[C@H]2C(=O)N[C@@H](CC(=O)NCCCCCCCCCn2cc(-c3cc(-c4ccccc4O)nnc3N)cn2)c2ccc(-c3scnc3C)cc2)C(C)C)on1
11 | 46 | 89 | 93 | 90 | Cc1cc([C@H](C(=O)N2C[C@H](O)C[C@H]2C(=O)N[C@@H](CC(=O)NCCCCCCCCCCCCn2cc(-c3cc(-c4ccccc4O)nnc3N)cn2)c2ccc(-c3scnc3C)cc2)C(C)C)on1
12 | > 1000 | 0 | 12 | > 1000 | Cc1ncsc1-c1ccc([C@H](C)NC(=O)[C@@H]2C[C@@H](O)CN2C(=O)[C@@H](NC(=O)CCN2CCC(CCCn3cc(-c4cc(-c5ccccc5O)nnc4N)cn3)CC2)C(C)C)cc1
13 | 682 | 76 | 62 | 585 | Cc1ncsc1-c1ccc([C@H](C)NC(=O)[C@@H]2C[C@@H](O)CN2C(=O)[C@@H](NC(=O)CCN2CCN(CCCn3cc(-c4cc(-c5ccccc5O)nnc4N)cn3)CC2)C(C)C)cc1
14 | 134 | 57 | 85 | > 1000 | Cc1ncsc1-c1ccc([C@H](C)NC(=O)[C@@H]2C[C@@H](O)CN2C(=O)[C@@H](NC(=O)CCCCn2cc(-c3cc(-c4ccccc4O)nnc3N)cn2)C(C)(C)C)cc1
15 | 5 | 66 | 90 | 219 | Cc1ncsc1-c1ccc([C@H](C)NC(=O)[C@@H]2C[C@@H](O)CN2C(=O)[C@@H](NC(=O)[C@H]2CC[C@H](CN3CCC4(CCC(n5cc(-c6cc(-c7ccccc7O)nnc6N)cn5)CC4)CC3)CC2)C(C)(C)C)cc1
16 | 34 | 72 | 90 | 315 | Cc1ncsc1-c1ccc([C@@H](C)NC(=O)[C@H]2C[C@H](O)CN2C(=O)[C@H](NC(=O)C2CCC(N3CCC4(CCC(n5cc(-c6cc(-c7ccccc7O)nnc6N)cn5)CC4)CC3)CC2)C(C)(C)C)cc1 (single isomer, unassigned)
17 | 67 | 93 | 91 | 66 | Cc1cc([C@H](C(=O)N2C[C@H](O)C[C@H]2C(=O)N[C@@H](CC(=O)NCCCCCCCCn2cc(-c3cc(-c4ccccc4O)nnc3N)cn2)c2ccc(-c3scnc3C)cc2)C(C)C)on1
18 | 96 | 92 | 91 | 91 | Cc1cc([C@H](C(=O)N2C[C@H](O)C[C@H]2C(=O)N[C@@H](CC(=O)NCCCCCCCn2cc(-c3cc(-c4ccccc4O)nnc3N)cn2)c2ccc(-c3scnc3C)cc2)C(C)C)on1
19 | 6 | 77 | 94 | 248 | Cc1ncsc1-c1ccc([C@H](C)NC(=O)[C@@H]2C[C@@H](O)CN2C(=O)[C@@H](NC(=O)CCCCCN2CCC(n3cc(-c4cc(-c5ccccc5O)nnc4N)cn3)CC2)C(C)(C)C)cc1
20 | 455 | 47 | 71 | > 1000 | Cc1ncsc1-c1ccc([C@H](C)NC(=O)[C@@H]2C[C@@H](O)CN2C(=O)[C@@H](NC(=O)COCCOCCOCCn2cc(-c3cc(-c4ccccc4O)nnc3N)cn2)C(C)C)cc1
21 | 18 | 84 | 86 | 213 | Cc1cc([C@H](C(=O)N2C[C@H](O)C[C@H]2C(=O)N[C@@H](CC(=O)NCCCCCCn2cc(-c3cc(-c4ccccc4O)nnc3N)cn2)c2ccc(-c3scnc3C)cc2)C(C)C)on1
22 | > 1000 | 0 | 19 | > 1000 | Cc1ncsc1-c1ccc([C@H](C)NC(=O)[C@@H]2C[C@@H](O)CN2C(=O)[C@@H](NC(=O)CCn2cc(-c3cc(-c4ccccc4O)nnc3N)cn2)C(C)(C)C)cc1
23 | 12 | 73 | 93 | > 1000 | Cc1ncsc1-c1ccc([C@H](C)NC(=O)[C@@H]2C[C@@H](O)CN2C(=O)[C@@H](NC(=O)CCCCCn2cc(-c3cc(-c4ccccc4O)nnc3N)cn2)C(C)(C)C)cc1
